Laboratory results reported in ChEMBL document CHEMBL1201862, “PubChem BioAssay data set” (2004).
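Compound exposure: 48 hours, 5 concentrations, 96-well plates. GI50 marks 50% less growth.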 Activity calls are given as the source filed them. Cut-off read from the data, not from the text of the source: active = GI50 up to about 1.1 µM and inactive = higher.

Key:
Experiment in all cases: NCI anticancer screen, dose series, 48 h
CCRF-CEM = tested on: CCRF-CEM
SK-MEL-28 = tested on: SK-MEL-28
COLO 205 = tested on: COLO 205
HOP-92 = tested on: HOP-92
LOX IMVI = tested on: LOX IMVI
NCI-H522 = tested on: NCI-H522
TK-10 = tested on: TK-10
RXF 393 = tested on: RXF 393
U-251 = tested on: U-251
SF-539 = tested on: SF-539
MOLT-4 = tested on: MOLT-4
SK-OV-3 = tested on: SK-OV-3
MDA-N = tested on: MDA-N
NCI-H460 = tested on: NCI-H460
Hs-578T = tested on: Hs-578T
UO-31 = tested on: UO-31
UACC-62 = tested on: UACC-62
BT-549 = tested on: BT-549
RPMI-8226 = tested on: RPMI-8226
K562 = tested on: K562

Measured: GI50

COc1ccccc1C1(c2c(OC(C)C)c(=O)c2=O)SCCCS1
inactive: CCRF-CEM 40.5 µM | SK-MEL-28 87.1 µM | COLO 205 > 100 µM | HOP-92 > 100 µM | LOX IMVI > 100 µM | NCI-H522 65.9 µM | TK-10 > 100 µM | RXF 393 > 100 µM | U-251 > 100 µM | SF-539 > 100 µM | MOLT-4 > 100 µM | SK-OV-3 > 100 µM | MDA-N > 100 µM | NCI-H460 > 100 µM | Hs-578T > 100 µM | UO-31 > 100 µM | UACC-62 > 100 µM | BT-549 72.6 µM

N/C(=N\c1ccc(Cl)c(Cl)c1)c1ccccc1N
inactive: CCRF-CEM 27.7 µM | SK-MEL-28 24 µM | COLO 205 20.6 µM | HOP-92 2.88 µM | LOX IMVI 22.1 µM | NCI-H522 11.4 µM | TK-10 36.8 µM | RXF 393 32.7 µM | U-251 30.1 µM | RPMI-8226 15.6 µM | MOLT-4 2.7 µM | K562 18.4 µM | SK-OV-3 85.7 µM | MDA-N 19.6 µM | NCI-H460 34.8 µM | Hs-578T 12.3 µM | UO-31 24.2 µM | UACC-62 54.5 µM | BT-549 24 µM

COc1cc(/C=C2\N=C(c3ccccc3)N(c3nc4ccc(Sc5ccccc5)cc4[nH]3)C2=O)cc(OC)c1OC
inactive: CCRF-CEM 27.1 µM | SK-MEL-28 24 µM | COLO 205 18.9 µM | HOP-92 58.6 µM | LOX IMVI 23.3 µM | NCI-H522 18.1 µM | TK-10 24.6 µM | RXF 393 22.1 µM | U-251 18.3 µM | RPMI-8226 20.1 µM | MOLT-4 26.8 µM | K562 13.2 µM | SK-OV-3 30.1 µM | MDA-N 4.76 µM | NCI-H460 21.6 µM | Hs-578T 30.8 µM | UO-31 34.4 µM | UACC-62 15.4 µM | BT-549 20.8 µM

O=[N+]([O-])c1ccc(Oc2c(Cl)cc(S(=O)(=O)N/C(=N\O)Nc3ccc(Cl)cc3)cc2Cl)c(Cl)c1
inactive: CCRF-CEM 27.3 µM | SK-MEL-28 21.6 µM | COLO 205 18.8 µM | HOP-92 12.8 µM | LOX IMVI 17.1 µM | NCI-H522 13 µM | TK-10 16 µM | RXF 393 13.2 µM | U-251 15.4 µM | RPMI-8226 15.2 µM | SF-539 20.3 µM | MOLT-4 10.8 µM | K562 15.8 µM | MDA-N 15.6 µM | NCI-H460 15.6 µM | Hs-578T 13.7 µM | UO-31 13.7 µM | UACC-62 14.4 µM | BT-549 14.8 µM

CC(=O)N[C@@H](Cc1ccc(O)cn1)C(=O)NCc1cccc(F)c1
inactive: CCRF-CEM > 100 µM | SK-MEL-28 > 100 µM | COLO 205 > 100 µM | HOP-92 30.9 µM | LOX IMVI > 100 µM | NCI-H522 > 100 µM | TK-10 > 100 µM | RXF 393 > 100 µM | U-251 > 100 µM | RPMI-8226 > 100 µM | SF-539 > 100 µM | K562 > 100 µM | SK-OV-3 > 100 µM | MDA-N > 100 µM | NCI-H460 > 100 µM | Hs-578T > 100 µM | UO-31 > 100 µM | UACC-62 > 100 µM | BT-549 > 100 µM

CC1(O)CC(C(F)(F)F)(C(F)(F)F)OC1=O (stereo not given)
inactive: CCRF-CEM > 10 µM | SK-MEL-28 > 10 µM | COLO 205 > 10 µM | HOP-92 > 10 µM | LOX IMVI > 10 µM | NCI-H522 > 10 µM | TK-10 > 10 µM | U-251 > 10 µM | RPMI-8226 > 10 µM | SF-539 > 10 µM | MOLT-4 > 10 µM | K562 > 10 µM | SK-OV-3 > 10 µM | MDA-N > 10 µM | NCI-H460 > 10 µM | Hs-578T > 10 µM | UO-31 > 10 µM | UACC-62 > 10 µM | BT-549 > 10 µM

CC(CNC(=O)c1ccccc1)(CNC(=O)c1ccccc1)[N+](=O)[O-]
inactive: COLO 205 > 100 µM | HOP-92 > 100 µM | NCI-H522 67.1 µM | TK-10 > 100 µM | RXF 393 > 100 µM | U-251 > 100 µM | RPMI-8226 > 100 µM | SF-539 > 100 µM | MOLT-4 > 100 µM | K562 > 100 µM | SK-OV-3 > 100 µM | MDA-N > 100 µM | NCI-H460 > 100 µM | Hs-578T > 100 µM | UO-31 23.8 µM | UACC-62 > 100 µM | BT-549 > 100 µM
